This passage reports DC50 results from US20240190880A1 (THE REGENTS OF THE UNIVERSITY OF MICHIGAN, priority 2021, published 2024).

The first test addresses T1, ER (Homo sapiens, UniProt P03372).
T1 construct: host or cells: T47D and MCF7 human breast cancer cells
T1 sequence (P03372 1-595): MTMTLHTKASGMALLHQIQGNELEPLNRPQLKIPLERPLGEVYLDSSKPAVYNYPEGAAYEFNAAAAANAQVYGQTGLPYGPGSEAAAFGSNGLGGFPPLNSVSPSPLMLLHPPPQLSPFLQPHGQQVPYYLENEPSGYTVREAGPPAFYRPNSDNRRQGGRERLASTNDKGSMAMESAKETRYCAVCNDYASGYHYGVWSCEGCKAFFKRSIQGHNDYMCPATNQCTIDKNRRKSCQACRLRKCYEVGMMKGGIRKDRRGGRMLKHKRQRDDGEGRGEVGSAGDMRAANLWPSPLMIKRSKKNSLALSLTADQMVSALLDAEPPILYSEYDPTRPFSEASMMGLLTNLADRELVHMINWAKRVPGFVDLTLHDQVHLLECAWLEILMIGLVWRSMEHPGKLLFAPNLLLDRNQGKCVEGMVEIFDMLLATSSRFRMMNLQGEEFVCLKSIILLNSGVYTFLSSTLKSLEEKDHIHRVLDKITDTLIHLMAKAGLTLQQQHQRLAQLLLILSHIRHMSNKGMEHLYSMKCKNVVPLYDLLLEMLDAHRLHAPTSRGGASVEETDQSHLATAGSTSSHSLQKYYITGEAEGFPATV
Put plainly: ER degradation activity, in-cell western blot analysis in T47D cells. The format is cell-based. Particulars: 16 hours, Table A does not say which cell line (T47D or MCF7), read-out: Potency (DC50). The procedure, abridged: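 In-cell western, T47D; compounds 16 h, 0.5% DMSO final; anti-rabbit-680/anti-mouse-800 secondaries, 1 h RT, dark; read on CLX imager. ER % vs untreated/DMSO wells (100%).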
On to `C[C@@H]1Cc2c([nH]c3ccccc23)[C@@H](c2c(F)cc(N3CCC4(CC3)CC(C(=O)N3CCC(N5Cc6cc7c(cc6C5)C(=O)N(C5CCC(=O)NC5=O)C7=O)CC3)C4)cc2F)N1CC(F)F` (stereo partly drawn) [E 100, 6-(1-(7-(4-((1R,3R)-2-(2,2-difluoroethyl)-3-methyl-2,3,4,9-tetrahydro-1H-pyrido[3,4-b]indol-1-yl)-3,5-difluorophenyl)-7-azaspiro[3.5]nonane-2-carbonyl)piperidin-4-yl)-2-(2,6-dioxopiperidin-3-yl)-6,7-dihydropyrrolo[3,4-f]isoindole-1,3(2H,5H)-dione], for which the DC50 is under 10 nM.
Turning to `O=C1CCC(N2C(=O)c3cc4c(cc3C2=O)CN(CC2CCN(C(=O)C3(F)CN(c5ccc([C@@H]6c7ccc(O)cc7CC[C@@H]6c6ccccc6)cc5)C3)CC2)C4)C(=O)N1` (stereo partly drawn) [E 203, 2-(2,6-dioxopiperidin-3-yl)-6-((1-(3-fluoro-1-(4-((1R,2S)-6-hydroxy-2-phenyl-1,2,3,4-tetrahydronaphthalen-1-yl)phenyl)azetidine-3-carbonyl)piperidin-4-yl)methyl)-6,7-dihydropyrrolo[3,4-f]isoindole-1,3(2H,5H)-dione], the DC50 was over 100 nM.
Same read-out and setting: the value for `C[C@@H]1Cc2c([nH]c3ccccc23)[C@@H](c2c(F)cc(N3CCCC(CN4CCC(C(=O)N5Cc6cc7c(cc6C5)C(=O)N(C5CCC(=O)NC5=O)C7)CC4)C3)cc2F)N1CC(F)F` (stereo partly drawn) [E 92, 3-(6-(1-((1-(4-((1R,3R)-2-(2,2-difluoroethyl)-3-methyl-2,3,4,9-tetrahydro-1H-pyrido[3,4-b]indol-1-yl)-3,5-difluorophenyl)piperidin-3-yl)methyl)piperidine-4-carbonyl)-1-oxo-3,5,6,7-tetrahydropyrrolo[3,4-f]isoindol-2(1H)-yl)piperidine-2,6-dione] was under 10 nM.
Same read-out and setting: for `O=C1CCC(N2C(=O)c3cc4c(cc3C2=O)CN(CC(=O)NC2CCN(c3ccc([C@@H]5c6ccc(O)cc6CC[C@@H]5c5ccccc5)cc3)CC2)C4)C(=O)N1` (stereo partly drawn) [E331, 2-(6-(2,6-dioxopiperidin-3-yl)-5,7-dioxo-3,5,6,7-tetrahydropyrrolo[3,4-f]isoindol-2(1H)-yl)-N-(1-(4-((1R,2S)-6-hydroxy-2-phenyl-1,2,3,4-tetrahydronaphthalen-1-yl)phenyl)piperidin-4-yl)acetamide] the value was over 100 nM; for `C[C@@H]1Cc2c([nH]c3ccccc23)[C@@H](c2c(F)cc(N3CCC(CN4CCC(N5Cc6cc7c(cc6C5)C(=O)N(C5CCC(=O)NC5=O)C7=O)C4)CC3)cc2F)N1CC(F)F` (stereo partly drawn) [E 129, 6-(1-((1-(4-((1R,3R)-2-(2,2-difluoroethyl)-3-methyl-2,3,4,9-tetrahydro-1H-pyrido[3,4-b]indol-1-yl)-3,5-difluorophenyl)piperidin-4-yl)methyl)pyrrolidin-3-yl)-2-(2,6-dioxopiperidin-3-yl)-6,7-dihydropyrrolo[3,4-f]isoindole-1,3(2H,5H)-dione], under 10 nM; for `C[C@@H]1Cc2c([nH]c3ccccc23)[C@@H](c2c(F)cc(N3CCC(N4CCN(CC(=O)N5Cc6cc7c(cc6C5)C(=O)N(C5CCC(=O)NC5=O)C7)CC4)CC3)cc2F)N1CC(F)F` (stereo partly drawn) [E 96, 3-(6-(2-(4-(1-(4-((1R,3R)-2-(2,2-difluoroethyl)-3-methyl-2,3,4,9-tetrahydro-1H-pyrido[3,4-b]indol-1-yl)-3,5-difluorophenyl)piperidin-4-yl)piperazin-1-yl)acetyl)-1-oxo-3,5,6,7-tetrahydropyrrolo[3,4-f]isoindol-2(1H)-yl)piperidine-2,6-dione], under 10 nM.
On to `C[C@@H]1Cc2c([nH]c3ccccc23)[C@@H](c2c(F)cc(N3CCC(C(=O)N4CC(CN5Cc6cc7c(cc6C5)C(=O)N(C5CCC(=O)NC5=O)C7=O)C4)CC3)cc2F)N1CC(F)F` (stereo partly drawn) [E 234, 6-((1-(1-(4-((1R,3R)-2-(2,2-difluoroethyl)-3-methyl-2,3,4,9-tetrahydro-1H-pyrido[3,4-b]indol-1-yl)-3,5-difluorophenyl)piperidine-4-carbonyl)azetidin-3-yl)methyl)-2-(2,6-dioxopiperidin-3-yl)-6,7-dihydropyrrolo[3,4-f]isoindole-1,3(2H,5H)-dione], for which the DC50 lay within 10 to 100 nM.
Same read-out and setting: the value for `O=C1CCC(N2C(=O)c3cc4c(cc3C2=O)CN(CC(=O)N2CCC3(CC2)CCN(c2ccc([C@@H]5c6ccc(O)cc6CC[C@@H]5c5ccccc5)cc2)CC3)C4)C(=O)N1` (mixture of isomers) [E 20, Rac-2-(2,6-dioxopiperidin-3-yl)-6-(2-(9-(4-((1R,2S)-6-hydroxy-2-phenyl-1,2,3,4-tetrahydronaphthalen-1-yl)phenyl)-3,9-diazaspiro[5.5]undecan-3-yl)-2-oxoethyl)-6,7-dihydropyrrolo[3,4-f]isoindole-1,3(2H,5H)-dione] was 10 to 100 nM; that for `C[C@@H]1Cc2c([nH]c3ccccc23)[C@@H](c2c(F)cc(N3CCC(N4CC(C(=O)N5Cc6cc7c(cc6C5)C(=O)N(C5CCC(=O)NC5=O)C7=O)C4)CC3)cc2F)N1CC(F)F` (stereo partly drawn) [E 119, 6-(1-(1-(4-((1R,3R)-2-(2,2-difluoroethyl)-3-methyl-2,3,4,9-tetrahydro-1H-pyrido[3,4-b]indol-1-yl)-3,5-difluorophenyl)piperidin-4-yl)azetidine-3-carbonyl)-2-(2,6-dioxopiperidin-3-yl)-6,7-dihydropyrrolo[3,4-f]isoindole-1,3(2H,5H)-dione] was over 100 nM; that for `O=C1CCC(N2Cc3cc4c(cc3C2=O)CN(C(=O)CN2CCC3(CC2)CCN(c2ccc([C@@H]5c6ccc(O)cc6CC[C@@H]5c5ccccc5)cc2)CC3)C4)C(=O)N1` (stereo partly drawn) [E 354, 3-(6-(2-(9-(4-((1R,2S)-6-hydroxy-2-phenyl-1,2,3,4-tetrahydronaphthalen-1-yl)phenyl)-3,9-diazaspiro[5.5]undecan-3-yl)acetyl)-1-oxo-3,5,6,7-tetrahydropyrrolo[3,4-f]isoindol-2(1H)-yl)piperidine-2,6-dione] was under 10 nM.
The same measure, in the same setting: for `C[C@@H]1Cc2c([nH]c3ccccc23)[C@@H](c2c(F)cc(-c3ncc(C(=O)N4CCC(N5Cc6cc7c(cc6C5)C(=O)N(C5CCC(=O)NC5=O)C7=O)CC4)cn3)cc2F)N1CC(F)F` (stereo partly drawn) [E 346, 6-(1-(2-(4-((1R,3R)-2-(2,2-difluoroethyl)-3-methyl-2,3,4,9-tetrahydro-1H-pyrido[3,4-b]indol-1-yl)-3,5-difluorophenyl)pyrimidine-5-carbonyl)piperidin-4-yl)-2-(2,6-dioxopiperidin-3-yl)-6,7-dihydropyrrolo[3,4-f]isoindole-1,3(2H,5H)-dione] the value was under 10 nM.

The same test, now with this note: compounds 16 hours, Table A does not say whether T47D or MCF7, read-out: Potency (DC50).
`C[C@@H]1Cc2cc(O)ccc2[C@@H](c2c(F)cc(OCC3CCC4(CC3)CN(C(=O)CN3Cc5cc6c(cc5C3)C(=O)N(C3CCC(=O)NC3=O)C6=O)C4)cc2F)N1CC(F)F` (stereo partly drawn) [E 453, 6-(2-(7-((4-((1S,3R)-2-(2,2-difluoroethyl)-6-hydroxy-3-methyl-1,2,3,4-tetrahydroisoquinolin-1-yl)-3,5-difluorophenoxy)methyl)-2-azaspiro[3.5]nonan-2-yl)-2-oxoethyl)-2-(2,6-dioxopiperidin-3-yl)-6,7-dihydropyrrolo[3,4-f]isoindole-1,3(2H,5H)-dione]: the DC50 was under 10 nM.
Same read-out and setting: for `O=C1CCC(N2Cc3cc4c(cc3C2=O)C(=O)N(C2CCN(CC3CCN(c5ccc([C@@H]6c7ccc(O)cc7CC[C@@H]6c6ccccc6)cc5)CC3)CC2)C4)C(=O)N1` (stereo partly drawn) [E 507, 2-(2,6-dioxopiperidin-3-yl)-6-(1-((1-(4-((1R,2S)-6-hydroxy-2-phenyl-1,2,3,4-tetrahydronaphthalen-1-yl)phenyl)piperidin-4-yl)methyl)piperidin-4-yl)-2,3,5,6-tetrahydropyrrolo[3,4-f]isoindole-1,7-dione] the value was over 100 nM; for `O=C1CCC(N2C(=O)c3cc4c(cc3C2=O)CN(C2CCN(C(=O)[C@H]3C[C@@H](Oc5ccc([C@@H]6c7ccc(O)cc7CC[C@@H]6c6ccccc6)cc5)C3)CC2)C4)C(=O)N1` (mixture of isomers) [E 490, 2-(2,6-dioxopiperidin-3-yl)-6-(1-((1SR,3SR)-3-(4-((1R,2S)-6-hydroxy-2-phenyl-1,2,3,4-tetrahydronaphthalen-1-yl)phenoxy)cyclobutane-1-carbonyl)piperidin-4-yl)-6,7-dihydropyrrolo[3,4-f]isoindole-1,3(2H,5H)-dione], 10 to 100 nM; for `O=C1CCC(N2C(=O)c3cc4c(cc3C2=O)CN(CC(=O)N2CCC3(CC2)CN(C(=O)c2ccc([C@@H]5c6ccc(O)cc6CC[C@@H]5c5ccccc5)cc2)C3)C4)C(=O)N1` (stereo partly drawn) [E 496, 2-(2,6-dioxopiperidin-3-yl)-6-(2-(2-(4-((1R,2S)-6-hydroxy-2-phenyl-1,2,3,4-tetrahydronaphthalen-1-yl)benzoyl)-2,7-diazaspiro[3.5]nonan-7-yl)-2-oxoethyl)-6,7-dihydropyrrolo[3,4-f]isoindole-1,3(2H,5H)-dione], over 100 nM.
